Patent US20200038410A1, “METHODS FOR TREATING NEUROPATHY” (Loyola University Chicago, priority 2018, published 2020)

Legend:
[1] = tested on: LXRs in organotypic cultures of DRG; assay: LXR target gene expression (ABCA1) in organotypic cultures of DRG; type: cell-based, mice; conditions: organotypic cultures of DRG stimulated with GW3965; FIG. 1B
Source text: FIG. 1A is a chart representing distribution of nuclear receptor mRNA in the whole DRG. Normalized mRNA expression levels were defined as Absent if the Ct value was greater than 40, Low if the level was […] arbitrary units, Moderate if the level was between 0.025 and 0.25, and High if the level was greater than 0.25 arbitrary units. […] FIGS. 1D and 1F represent data of protein levels of CHOP, an ER stress marker, in DRG of mice fed western diet (WD) compared to normal chow (NC) (FIG. 1D, n=10 DRG/group), and in ex vivo organotypic whole DRG cultures treated with palmitate and LXR agonist (FIG. 1F, n=individual experiments in triplicate). FIGS. 1C, 1E, and 1G represent data of mRNA levels of ER stress markers using 18S to normalize, in DRG of WD and NC fed mice (FIG. 1C, n=4 mice/group), in organotypic whole DRG cultures (FIG. 1E), and in primary neuronal culture of DRG neurons treated with LXR agonist and palmitate (FIG. 1G, n=5 individual experiments). (All values are Mean±S.E.M, with vehicle group defined as 100%; *p<0.05 with vehicle; **p<0.05 with vehicle+palmitate). […]

DRG of WD-fed mice = assay: ER stress marker (UPR target gene) mRNA in DRG of WD-fed mice treated with agonist; type: in vivo; conditions: 25 mg/kg i.p. twice a week for three weeks, FIG. 2D
Source text: End point levels of serum triglycerides (FIG. 2B), cholesterol (FIG. 2C), in mice fed NC or WD treated with agonist. FIG. 2D represents mRNA levels of ER stress markers normalized to 18S in DRG of NC or WD-fed mice treated with LXR agonist. (n=4 mice/group; all values are Mean±S.E.M; for mRNA relative levels were plotted with NC-vehicle group defined as 100%; *p<0.05 with NC-Veh; **p<0.05 with WD-Veh). The above data linking LXR and ER stress in DRG led the inventors to assess whether activation of LXRs could change the WD-induced allodynia. WT mice were fed either NC or WD for a total of twelve weeks after weaning, while assessing the onset and progression of allodynia. […] Weight-matched mice on either diet were treated for three weeks with either GW3965 (25 mg/kg body weight; twice a week by i.p.) or vehicle after eight weeks of WD diet (twelve weeks of age). As activation of LXRs elevated triglyceride levels in liver and plasma, the dosage of LXR agonist was adjusted to minimize the increase of triglyceride and cholesterol (FIGS. 2B and 2C). Sensitivity of mice to innocuous stimuli was evaluated over the duration of GW3965 treatment. […] Then, the expression of UPR target genes in DRG of NC- or WD-fed mice treated with vehicle or GW3965 was compared.

[2] = tested on: Nav1.8 expressing neurons of the DRG; assay: ER stress marker mRNA in Nav1.8 expressing sensory neurons (RiboTag IP) of DRG organotypic cultures treated with palmitate; type: cell-based, mice; conditions: Nav1.8 sensory neuron specific mRNA from DRG organotypic cultures, FIG. 3F
Source text: FIGS. 3A through 3F include charts and images representing that an LXR agonist decreased lipid-induced ER stress in DRG neurons expressing Nav1.8. […] FIG. 3B represents the generation of tissue specific RiboTag mouse. Sensory neuron specific (Nav1.8) Cre mice were utilized to generate Ribotag-Nav1.8-Cre mice. FIG. 3C represents data from western blots on whole DRG of RiboTag-Nav1.8-Cre mice after immunoprecipitation for HA. FIG. 3D represents data from immunohistochemistry on DRG slices for HA in sensory neurons (in green—HA, blue—DAPI/nuclei). FIG. 3E represents actin normalized mRNA levels of positive (Nav1.8) and negative (GFAP, PV) markers of Nav1.8 expressing neurons in whole DRG (WT), input, and IP samples. FIG. 3F represents actin normalized mRNA levels of ER stress markers, in sensory neurons treated with LXR agonist and palmitate. Sensory neuron specific mRNA was isolated by immunoprecipitation from whole DRG organotypic cultures treated with agonist and palmitate (n=3 individual experiments). (Values are Mean±S.E.M, with vehicle group defined as 100%; *p<0.05 with vehicle; **p<0.05 with vehicle+palmitate). […] The mRNA levels of ER stress markers undergoing translation were analyzed in Nav1.8 expressing neurons. […]

[3] = tested on: DRG primary neuronal cultures; assay: Palmitate-induced ER stress markers and lpcat3 mRNA in DRG primary neuronal cultures; type: cell-based, mice; conditions: DRG neurons stimulated by LXR agonist; FIG. 1G
Source text: (§1) FIG. 1A is a chart representing distribution of nuclear receptor mRNA in the whole DRG. Normalized mRNA expression levels were defined as Absent if the Ct value was greater than 40, Low if the level was […] arbitrary units, Moderate if the level was between 0.025 and 0.25, and High if the level was greater than 0.25 arbitrary units. […] FIGS. 1D and 1F represent data of protein levels of CHOP, an ER stress marker, in DRG of mice fed western diet (WD) compared to normal chow (NC) (FIG. 1D, n=10 DRG/group), and in ex vivo organotypic whole DRG cultures treated with palmitate and LXR agonist (FIG. 1F, n=individual experiments in triplicate). FIGS. 1C, 1E, and 1G represent data of mRNA levels of ER stress markers using 18S to normalize, in DRG of WD and NC fed mice (FIG. 1C, n=4 mice/group), in organotypic whole DRG cultures (FIG. 1E), and in primary neuronal culture of DRG neurons treated with LXR agonist and palmitate (FIG. 1G, n=5 individual experiments). (All values are Mean±S.E.M, with vehicle group defined as 100%; *p<0.05 with vehicle; **p<0.05 with vehicle+palmitate).
Previous research has shown that LXRs could be involved in the regulation of organelles/membrane phospholipid composition by regulating the expression of LPCAT3 (lysophospholipid acyltransferase).

[4] = tested on: 80-week old mice presenting signs of neuropathy; assay: Intra epidermal nerve fibers density in paw skin of 80-week old mice with neuropathy; type: in vivo; conditions: gavaged twice a week for three months, skin of paws, FIG. 6
Source text: FIG. 6 is a bar chart evidencing that treatments with a mixed solution of butyrate and an LXR agonist (GW3965) trigger an enhanced regeneration mechanism that improves neuropathy.
In an additional investigation, 80-week old mice presenting signs of neuropathy (loss of fibers in the skin) were gavaged twice a week during a three-month period with a GW3965 solution or a mixed solution of GW3965 and butyrate using the indicated concentrations reported in FIG. 6. After three months, the mice were euthanized and the intra epidermal nerve fibers density was counted in the skin of their paws.

organotypic DRG cultures = assay: Palmitate-induced ER stress markers (mRNA) in organotypic whole DRG cultures; type: cell-based, mice; conditions: palmitate treated organotypic DRG cultures, compared to vehicle; FIG. 1E
Source text: as §1
ER stress has been identified as a potential culprit underlying type 1 and type 2 diabetes. Increased expression of the ER stress marker CHOP was reported in metabolic tissues of diabetic mice, while targeted disruption of CHOP gene delayed the onset of diabetes. […]

WD-fed mice = assay: Western diet-induced allodynia, von Frey test; type: in vivo; conditions: 25 mg/kg i.p. twice a week for three weeks after eight weeks of WD, compared to WD vehicle, FIG. 2A
Source text: End point levels of serum triglycerides (FIG. 2B), cholesterol (FIG. 2C), in mice fed NC or WD treated with agonist. FIG. 2D represents mRNA levels of ER stress markers normalized to 18S in DRG of NC or WD-fed mice treated with LXR agonist. (n=4 mice/group; all values are Mean±S.E.M; for mRNA relative levels were plotted with NC-vehicle group defined as 100%; *p<0.05 with NC-Veh; **p<0.05 with WD-Veh). The mechanical hypersensitivity observed early in peripheral neuropathy is believed to be associated with metabolic syndrome and independent of diabetes. […] The von Frey test was performed and measured phasic response frequency to calculate the 50% threshold in WD and NC-fed mice. […] The above data linking LXR and ER stress in DRG led the inventors to assess whether activation of LXRs could change the WD-induced allodynia. WT mice were fed either NC or WD for a total of twelve weeks after weaning, while assessing the onset and progression of allodynia. […] Weight-matched mice on either diet were treated for three weeks with either GW3965 (25 mg/kg body weight; twice a week by i.p.) or vehicle after eight weeks of WD diet (twelve weeks of age). […] Sensitivity of mice to innocuous stimuli was evaluated over the duration of GW3965 treatment. […]

`O=C(O)Cc1cccc(OCCCN(Cc2cccc(C(F)(F)F)c2Cl)CC(c2ccccc2)c2ccccc2)c1` [GW3965] was tested, and the “LXR canonical gene expression, ATP-binding cassette transporter (ABCA1)” value [1] was “significant increase”, the “expression of ER stress markers in DRG” value (DRG of WD-fed mice) was “decreased expression of ER stress markers” and the “CHOP, ATF4, and sXBP1 mRNA levels increased by palmitate” value [2] was “blunted”. The “lpcat3 mRNA” value [3] was “significant increase”, the “number of nerves (intra epidermal nerve fibers density)” value [4] was “increased the number the nerves” and the “mRNA levels of ER stress markers” value (organotypic DRG cultures) was “decreased”. For the same molecule, the “progression of WD-induced allodynia (von Frey sensitivity to innocuous stimuli)” value (WD-fed mice) was “delay in the progression of WD-induced allodynia”.
